Legend:
[1] = tested on: subgenomic HCV replicon BM4-5 in Huh7 cells; assay: Antiviral assay on HCV subgenomic replicon, Northern blot of (+)-strand HCV RNA; assay type: cell-based, Hepatitis C Virus; settings: for IC50 / IC90: Hepatitis C virus, 72 h, Huh7 BM4-5 replicon, positive strand HCV RNA by Northern blot, three days treatment; for IC50: read-out: IC50, anti-HCV activity, (+)-RNA; for IC90: read-out: IC90, anti-HCV activity, (+)-RNA; for Selectivity Index (SI), ratio between CC50 and IC50: replicon system
Description: (§1) Antiviral and Cytotoxicity assays for HCV. Huh7 cells harbouring the subgenomic HCV replicon BM4-5 (J. T. Guo et al., J. Virol. 2001, 75: 8516-8523) were used in this study. Cells were maintained in Dulbecco's modified Eagle's medium high glucose 4.5 g/l (LifeTechnlogies) supplemented with 10% fetal bovine serum, 1% L-glutamine, 1% penicillin and streptomycin, 1% L-Pyruvate and 500 μg/ml of geneticien (G418, Invitrogen). Geneticin was used to select cells permitting the HCV RNA replication. Cells were passaged every four days with a 1:4 ratio.
Cells were seeded in 6-wells plates at a density of 2.5×10^5 cells per well, sixteen hours before the beginning of treatment. […] The administration of each drug was renewed every day for three consecutive days. Ribarivin (ICN Pharmaceuticals), mycophenolic acid (MPA, Sigma), and interferon alpha-2b (IntronA®)) were used in the same conditions as positive controls. The concentrations used for these drugs were respectively: 0; 0.5; 1; 2; 4; 8; 16; 32; 64; 128; 256 and 512 μM for ribavirin, 0; 2.5; 5; 10; 20; 40 μM for mycophenolic acid, and 0; 0.1; 1; 10; 100 and 1000 Ul/mL for IFN alpha-2b. Total RNA was extracted at the end of treatment (24 hours after the last day of treatment) with the <<Extract all>> reagent (Eurobio), which is a mix of phenol and guanidium thiocyanate. Northern blot analysis was then performed using the NorthernMax™-Gly kit (Ambion), following manufacturer's instructions. Five micrograms of total RNA were denaturated in glyoxal buffer at 50° C. for 30 minutes, separated by 1.1% agarose gel electrophoresis, and then transferred for 12 hours onto a charged nylon membrane (HybondN+, Amersham). Hybridization was carried out with three different [^32P]CTP-labelled riboprobes obtained by in vitro transcription (Riboprobe in vitro transcription system, Promega). Two probes were complementary to the NS5A region of the HCV genome of negative polarity and positive polarity. A third probe was complementary to the beta-actin mRNA and obtained by in vitro transcription from a specific plasmid (PTRI beta actin human, reference 7424, Ambion). First, the blot was hybridized with the riboprobes directed against the negative strand of HCV RNA and beta-actin mRNA, respectively. After one night of hybridization at 68° C., the membrane was washed, then exposed to X-ray film and a phosphor screen (phosphorimager). This screen was then scanned and quantitative analysis was achieved using ImageQuant software. The amount of beta-actin mRNA was used as an internal loading control to standardize the amount of HCV RNA detected. The same membrane was subsequently hybridized with the […] to determine the level of positive strand HCV RNA, suing the same approach.

[2] = Cell viability (neutral red) on the replicon system; assay type: cell-based; settings: human, Huh7 cells harbouring the subgenomic HCV replicon BM4-5, neutral red test, drug renewed daily for three days, read-out: CC50, cytotoxicity on Replicon System
Description: as §1
For cell viability assays, cells were seeded in 96-well plates at a density of 12,500 cells per well. They were treated by the different molecules with the same concentrations and conditions than those used for the antiviral assays. Then, cell viability was measured by neutral red assay. Neutral red specifically colors lysosomes and its accumulation depends on cellular membrane integrity. The yield of neutral red incorporated in cells is proportional to the number of living cells. At the end of treatment, culture medium was removed; cells were washed by PBS, then coloured with neutral red at 0.005% for 3 hours at 37° C. Cells were then fixed 1 minute by formol calcium and lysed by atreatment with a vol/vol mixture of acetic acid and ethanol. After 15 minutes incubation, absorbance was read at 490 nm.

[3] = Cytotoxicity against PBM cells; assay type: cell-based; settings: human
[4] = Cytotoxicity against CEM cells; assay type: cell-based; settings: human
[5] = Cytotoxicity against VERO cells; assay type: cell-based; settings: African green monkey

Compound | melting point | IC50 [1] | IC90 [1] | Selectivity Index (SI), ratio between CC50 and IC50 [1] | CC50 at 3 days [2] | CC50 [3] | CC50 [4] | CC50 [5]
CC(=O)OC[C@H]1O[C@@H](n2cc(C(Br)=CBr)c(=O)[nH]c2=O)C[C@@H]1OC(C)=O | 79 to 81 °C | – | – | – | – | – | – | –
CC(=O)OC[C@H]1O[C@@H](n2cc(/C(Br)=C\Br)c(=O)[nH]c2=O)[C@H](OC(C)=O)[C@@H]1OC(C)=O | 83 to 85 °C | – | – | – | – | – | – | –
CC(=O)OC[C@@H]1C[C@@H](OC(C)=O)[C@H](n2cc(C(Br)=CBr)c(=O)[nH]c2=O)O1 | 78 to 80 °C | – | – | – | – | – | – | –
CC(=O)OC[C@H]1O[C@@H](n2cc(C#CI)c(=O)[nH]c2=O)C[C@@H]1OC(C)=O | 175 to 177 °C (dec.) | – | – | – | – | – | – | –
CC(=O)OC[C@H]1O[C@@H](n2cc(C#CI)c(=O)[nH]c2=O)[C@H](OC(C)=O)[C@@H]1OC(C)=O | 100 to 102 °C | – | – | – | – | – | – | –
CC(=O)OC[C@H]1O[C@@H](n2cc(/C(I)=C\I)c(=O)[nH]c2=O)C[C@@H]1OC(C)=O | 76 to 78 °C | – | – | – | – | – | – | –
CC(=O)OC[C@H]1O[C@@H](n2cc(/C(I)=C\I)c(=O)[nH]c2=O)[C@H](OC(C)=O)[C@@H]1OC(C)=O | 83 to 85 °C | – | – | – | – | – | – | –
CC(=O)OC[C@@H]1C[C@@H](OC(C)=O)[C@H](n2cc(/C(I)=C\I)c(=O)[nH]c2=O)O1 | 75 to 77 °C | – | – | – | – | – | – | –
CC(=O)OC[C@H]1O[C@@H](n2cc(/C(Br)=C\I)c(=O)[nH]c2=O)C[C@@H]1OC(C)=O | 82 to 84 °C | – | – | – | – | – | – | –
CC(=O)OC[C@H]1O[C@@H](n2cc(/C(Br)=C\I)c(=O)[nH]c2=O)[C@H](OC(C)=O)[C@@H]1OC(C)=O | 86 to 88 °C | – | – | – | – | – | – | –
O=c1[nH]c(=O)n([C@H]2C[C@H](O)[C@@H](CO)O2)cc1C#CI [Compound 12a, 5-(2-Iodoethynyl)-2′-deoxyuridine] | 135 to 137 °C | 57.1 µM | > 239 µM | >3.2 | > 182 µM | 7.5 µM | 15.8 µM | > 100 µM
O=c1[nH]c(=O)n([C@@H]2O[C@H](CO)[C@@H](O)[C@H]2O)cc1C#CI [Compound 12b, 5-(2-Iodoethynyl)-uridine] | – | > 200 µM | > 200 µM | <1 | 148 µM | > 100 µM | > 100 µM | > 100 µM
O=c1[nH]c(=O)n([C@@H]2O[C@H](CO)C[C@H]2O)cc1C#CI [Compound 12c, 5-(2-Iodoethynyl)-3′-deoxyuridine] | – | > 200 µM | > 200 µM | ≦1 | > 200 µM | > 100 µM | > 100 µM | 3.2 µM
O=c1[nH]c(=O)n([C@H]2C[C@H](O)[C@@H](CO)O2)cc1C#CBr [Compound 13a, 5-(2-Bromoethynyl)-2′-deoxyuridine] | – | > 200 µM | > 200 µM | ≧1 | > 200 µM | > 100 µM | > 100 µM | > 100 µM
O=c1[nH]c(=O)n([C@@H]2O[C@H](CO)C[C@H]2O)cc1C#CBr [Compound 13c, 5-(2-Bromoethynyl)-3′-deoxyuridine] | – | > 300 µM | > 300 µM | ≦1 | > 300 µM | > 100 µM | > 100 µM | 6.4 µM
O=c1[nH]c(=O)n([C@H]2C[C@H](O)[C@@H](CO)O2)cc1/C(I)=C\I [Compound 14a, (E)-5-(1,2-Diiodovinyl)-2′-deoxyuridine] | 103 to 105 °C | > 161 µM | > 263 µM | <1 | 76.7 µM | 14.7 µM | 19.5 µM | 19.5 µM
O=c1[nH]c(=O)n([C@@H]2O[C@H](CO)[C@@H](O)[C@H]2O)cc1/C(I)=C\I [Compound 14b, (E)-5-(1,2-Diiodovinyl)-uridine] | 107 to 109 °C | 162 µM | > 250 µM | >1.5 | > 250 µM | > 100 µM | 41.7 µM | 49.5 µM
O=c1[nH]c(=O)n([C@@H]2O[C@H](CO)C[C@H]2O)cc1/C(I)=C\I [Compound 14c, (E)-5-(1,2-Diiodovinyl)-3′-deoxyuridine] | – | > 200 µM | > 200 µM | ≦1 | > 200 µM | 87.2 µM | > 100 µM | 42.6 µM
O=c1[nH]c(=O)n([C@H]2C[C@H](O)[C@@H](CO)O2)cc1/C(Br)=C\I [Compound 15a, (E)-5-(1-Bromo-2-iodovinyl)-2′-deoxyuridine] | – | > 100 µM | > 100 µM | <1 | 43 µM | 13.3 µM | 0.13 µM | 6.6 µM
O=c1[nH]c(=O)n([C@@H]2O[C@H](CO)[C@@H](O)[C@H]2O)cc1/C(Br)=C\I [Compound 15b, (E)-5-(1-Bromo-2-iodovinyl)-uridine] | – | > 100 µM | > 100 µM | ≦1 | > 100 µM | > 100 µM | 93.6 µM | > 100 µM
O=c1[nH]c(=O)n([C@H]2C[C@H](O)[C@@H](CO)O2)cc1/C(Cl)=C\I [Compound 16a, (E)-5-(1-Chloro-2-iodovinyl)-2′-deoxyuridine] | – | 79.8 µM | > 207 µM | 2.7 | 213 µM | 3.2 µM | 14.8 µM | 1.4 µM
O=c1[nH]c(=O)n([C@@H]2O[C@H](CO)C[C@H]2O)cc1/C(Cl)=C\I [Compound 16c, (E)-5-(1-Chloro-2-iodovinyl)-3′-deoxyuridine] | – | > 200 µM | > 200 µM | ≦1 | > 200 µM | 94.4 µM | 66.6 µM | 15.3 µM
O=c1[nH]c(=O)n([C@H]2C[C@H](O)[C@@H](CO)O2)cc1/C(Br)=C\Br [Compound 17a, (E)-5-(1,2-Dibromovinyl)-2′-deoxyuridine] | – | < 200 µM | > 200 µM | ≧1 | > 200 µM | > 100 µM | 43.9 µM | > 100 µM
O=c1[nH]c(=O)n([C@@H]2O[C@H](CO)[C@@H](O)[C@H]2O)cc1/C(Br)=C\Br [Compound 17b, (E)-5-(1,2-Dibromovinyl)-uridine] | – | > 200 µM | > 200 µM | ≦1 | > 200 µM | > 100 µM | > 100 µM | 59.8 µM
O=c1[nH]c(=O)n([C@@H]2O[C@H](CO)C[C@H]2O)cc1/C(Br)=C\Br [Compound 17c, (E)-5-(1,2-Dibromovinyl)-3′-deoxyuridine] | – | > 200 µM | > 200 µM | ≦1 | > 200 µM | > 100 µM | 79.3 µM | 7.8 µM
COc1c(C)c2c(c(O)c1C/C=C(\C)CCC(=O)O)C(=O)OC2 [MPA, mycophenolic acid, reference compound] | – | 40 µM | – | <1 | 7 µM | – | – | –
